# pIC50: −log10 of the molar value.
# Target: T1, RORc ligand binding domain (Homo sapiens, UniProt P51449)
# T1 sequence (P51449 269-508 limits assumed): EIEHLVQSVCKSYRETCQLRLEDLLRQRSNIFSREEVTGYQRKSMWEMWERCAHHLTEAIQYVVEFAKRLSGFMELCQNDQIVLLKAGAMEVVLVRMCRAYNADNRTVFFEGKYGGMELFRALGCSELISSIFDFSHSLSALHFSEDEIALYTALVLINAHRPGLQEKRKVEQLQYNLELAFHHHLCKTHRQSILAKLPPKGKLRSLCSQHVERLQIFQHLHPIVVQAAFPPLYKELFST
# Assay: In Vitro RORc Ligand Binding Assay
# Conditions: RORc IC50, radioligand 25-[3H]hydroxycholesterol 6 nM; 0.6 ug/mL RORc receptor; 3 h at 25° C.
row,Compound,pIC50
1,CC1(C)[C@H]2CC[C@]1(c1ccnc(-n3cnc(N)n3)n1)c1nnc(-c3c(F)cccc3F)cc12 [Example 305],7.71
2,"CC1(C)[C@H]2CC[C@]1(c1cncc(-c3nc(CCO)n[nH]3)n1)c1nnc(-c3c(F)cccc3F)cc12 [Example 306, 2-(5-(6-((5R,8S)-3-(2,6-difluorophenyl)-9,9-dimethyl-5,6,7,8-tetrahydro-5,8-methanocinnolin-8-yl)pyrazin-2-yl)-1H-1,2,4-triazol-3-yl)ethanol]",7.79
3,CC(C)(O)C1CN(c2nccc([C@@]34CC[C@@H](c5cc(-c6c(F)cccc6F)nnc53)C4(C)C)n2)C1 [Example 307],7.87
4,"CC1(C)[C@H]2CC[C@]1(c1cncc(-c3nc([C@@H](O)C(F)(F)F)n[nH]3)n1)c1nnc(-c3c(F)cccc3F)cc12 [Example 308, (R)-1-(5-(6-((5R,8S)-3-(2,6-difluorophenyl)-9,9-dimethyl-5,6,7,8-tetrahydro-5,8-methanocinnolin-8-yl)pyrazin-2-yl)-1H-1,2,4-triazol-3-yl)-2,2,2-trifluoroethanol]",6.98
5,"CC1(C)[C@H]2CC[C@]1(c1cncc(-c3nc([C@H](O)C(F)(F)F)n[nH]3)n1)c1nnc(-c3c(F)cccc3F)cc12 [Example 309, (S)-1-(5-(6-((5R,8S)-3-(2,6-difluorophenyl)-9,9-dimethyl-5,6,7,8-tetrahydro-5,8-methanocinnolin-8-yl)pyrazin-2-yl)-1H-1,2,4-triazol-3-yl)-2,2,2-trifluoroethanol]",7.05
6,"CC1(C)[C@H]2CC[C@]1(c1cccc(-c3nc(CCO)n[nH]3)n1)c1nnc(-c3c(F)cccc3F)cc12 [Example 310, 2-(5-(6-((5R,8S)-3-(2,6-difluorophenyl)-9,9-dimethyl-5,6,7,8-tetrahydro-5,8-methanocinnolin-8-yl)pyridin-2-yl)-1H-1,2,4-triazol-3-yl)ethanol]",7.13
7,"C[C@@H](O)Cc1n[nH]c(-c2cccc([C@@]34CC[C@@H](c5cc(-c6c(F)cccc6F)nnc53)C4(C)C)n2)n1 [Example 311, (R)-1-(5-(6-((5R,8S)-3-(2,6-difluorophenyl)-9,9-dimethyl-5,6,7,8-tetrahydro-5,8-methanocinnolin-8-yl)pyridin-2-yl)-1H-1,2,4-triazol-3-yl)propan-2-ol]",7.15
8,"C[C@H](O)Cc1n[nH]c(-c2cccc([C@@]34CC[C@@H](c5cc(-c6c(F)cccc6F)nnc53)C4(C)C)n2)n1 [Example 312, (S)-1-(5-(6-((5R,8S)-3-(2,6-difluorophenyl)-9,9-dimethyl-5,6,7,8-tetrahydro-5,8-methanocinnolin-8-yl)pyridin-2-yl)-1H-1,2,4-triazol-3-yl)propan-2-ol]",7.20
9,"CC1(C)[C@H]2CC[C@]1(c1cncc(OCC(N)=O)n1)c1nnc(-c3c(F)cccc3F)cc12 [Example 315, 2-((6-((5R,8S)-3-(2,6-difluorophenyl)-9,9-dimethyl-5,6,7,8-tetrahydro-5,8-methanocinnolin-8-yl)pyrazin-2-yl)oxy)acetamide]",7.03
10,"CC(C)(O)COc1cncc([C@@]23CC[C@@H](c4cc(-c5c(F)cccc5F)nnc42)C3(C)C)n1 [Example 316, 1-((6-((5R,8S)-3-(2,6-difluorophenyl)-9,9-dimethyl-5,6,7,8-tetrahydro-5,8-methanocinnolin-8-yl)pyrazin-2-yl)oxy)-2-methylpropan-2-ol]",7.44
11,"CC[C@@H](O)c1n[nH]c(-c2cccc([C@@]34CC[C@@H](c5cc(-c6c(F)cccc6F)nnc53)C4(C)C)n2)n1 [Example 318, (R)-1-(5-(6-((5R,8S)-3-(2,6-difluorophenyl)-9,9-dimethyl-5,6,7,8-tetrahydro-5,8-methanocinnolin-8-yl)pyridin-2-yl)-1H-1,2,4-triazol-3-yl)propan-1-ol]",7.97
12,CC1(C)[C@H]2CC[C@]1(c1cccc(-c3nc(CS(C)(=O)=O)n[nH]3)n1)c1nnc(-c3c(F)cccc3F)cc12 [Example 321],7.90
13,"CC[C@H](O)c1n[nH]c(-c2cccc([C@@]34CC[C@@H](c5cc(-c6c(F)cccc6F)nnc53)C4(C)C)n2)n1 [Example 322, (S)-1-(5-(6-((5R,8S)-3-(2,6-difluorophenyl)-9,9-dimethyl-5,6,7,8-tetrahydro-5,8-methanocinnolin-8-yl)pyridin-2-yl)-1H-1,2,4-triazol-3-yl)propan-1-ol]",7.94
14,CC1(C)[C@H]2CC[C@]1(c1ccnc(-n3cnc(CC(N)=O)n3)n1)c1nnc(-c3c(F)cccc3F)cc12 [Example 323],7.95
15,CC1(C)[C@H]2CC[C@]1(c1ccnc(N3CC4(CCO4)C3)n1)c1nnc(-c3c(F)cccc3F)cc12 [Example 336],7.89

# Molecules with a higher pIC50, results first:
row,pIC50,Compound
1,8.03,"CC(C)(O)c1cc(-c2cccc([C@@]34CC[C@@H](c5cc(-c6c(F)cccc6F)nnc53)C4(C)C)n2)[nH]n1 [Example 304, 2-(5-(6-((5R,8S)-3-(2,6-difluorophenyl)-9,9-dimethyl-5,6,7,8-tetrahydro-5,8-methanocinnolin-8-yl)pyridin-2-yl)-1H-pyrazol-3-yl)propan-2-ol]"
2,8.80,"CC1(C)[C@H]2CC[C@]1(c1cccc(-c3cc(CO)n[nH]3)n1)c1nnc(-c3c(F)cccc3F)cc12 [Example 313, (5-(6-((5R,8S)-3-(2,6-difluorophenyl)-9,9-dimethyl-5,6,7,8-tetrahydro-5,8-methanocinnolin-8-yl)pyridin-2-yl)-1H-pyrazol-3-yl)methanol]"
3,8.82,"CC(C)(O)c1noc(-c2cccc([C@@]34CC[C@@H](c5cc(-c6c(F)cccc6F)nnc53)C4(C)C)n2)n1 [Example 314, 2-(5-(6-((5R,8S)-3-(2,6-difluorophenyl)-9,9-dimethyl-5,6,7,8-tetrahydro-5,8-methanocinnolin-8-yl)pyridin-2-yl)-1,2,4-oxadiazol-3-yl)propan-2-ol]"
4,8.04,"CC1(C)[C@H]2CC[C@]1(c1cccc(-c3nc(C4(O)CC4)n[nH]3)n1)c1nnc(-c3c(F)cccc3F)cc12 [Example 317, 1-(5-(6-((5R,8S)-3-(2,6-difluorophenyl)-9,9-dimethyl-5,6,7,8-tetrahydro-5,8-methanocinnolin-8-yl)pyridin-2-yl)-1H-1,2,4-triazol-3-yl)cyclopropanol]"
5,8.05,"CC1(C)[C@H]2CC[C@]1(c1cccc(-c3nc(C4(O)COC4)n[nH]3)n1)c1nnc(-c3c(F)cccc3F)cc12 [Example 320, 3-(5-(6-((5R,8S)-3-(2,6-difluorophenyl)-9,9-dimethyl-5,6,7,8-tetrahydro-5,8-methanocinnolin-8-yl)pyridin-2-yl)-1H-1,2,4-triazol-3-yl)oxetan-3-ol]"
6,8.02,CC(C)(O)Cc1ccn(-c2nccc([C@@]34CC[C@@H](c5cc(-c6c(F)cccc6F)nnc53)C4(C)C)n2)n1 [Example 324]
7,8.17,"CC1(C)[C@H]2CC[C@]1(c1cncc(-c3nc(C(N)=O)co3)n1)c1nnc(-c3c(F)cccc3F)cc12 [Example 325, 2-(6-((5R,8S)-3-(2,6-difluorophenyl)-9,9-dimethyl-5,6,7,8-tetrahydro-5,8-methanocinnolin-8-yl)pyrazin-2-yl)oxazole-4-carboxamide]"
8,8.00,"CC1(C)[C@H]2CC[C@]1(c1cncc(-c3nc(C(=O)NCCO)co3)n1)c1nnc(-c3c(F)cccc3F)cc12 [Example 326, 2-(6-((5R,8S)-3-(2,6-difluorophenyl)-9,9-dimethyl-5,6,7,8-tetrahydro-5,8-methanocinnolin-8-yl)pyrazin-2-yl)-N-(2-hydroxyethyl)oxazole-4-carboxamide]"
9,8.66,CC1(C)[C@H]2CC[C@]1(c1ccnc(N3CCOCC3)n1)c1nnc(-c3c(F)cccc3F)cc12 [Example 328]
10,8.55,CC1(C)[C@H]2CC[C@]1(c1ccnc(N3CCCC3)n1)c1nnc(-c3c(F)cccc3F)cc12 [Example 329]
11,8.34,CC1(C)[C@H]2CC[C@]1(c1ccnc(N3CC[C@H](O)C3)n1)c1nnc(-c3c(F)cccc3F)cc12 [Example 330]
12,8.32,CC1(C)[C@H]2CC[C@]1(c1ccnc(OCCO)n1)c1nnc(-c3c(F)cccc3F)cc12 [Example 333]
13,8.30,CC1(C)[C@H]2CC[C@]1(c1ccnc(N3CCO[C@@H](CO)C3)n1)c1nnc(-c3c(F)cccc3F)cc12 [Example 334]
14,8.21,CC1(C)[C@H]2CC[C@]1(c1ccnc(N3CCO[C@H](CO)C3)n1)c1nnc(-c3c(F)cccc3F)cc12 [Example 335]
15,8.22,CC1(C)[C@H]2CC[C@]1(c1ccnc(N3CCNC(=O)C3)n1)c1nnc(-c3c(F)cccc3F)cc12 [Example 337]
16,8.49,CC1(C)[C@H]2CC[C@]1(c1ccnc(N3CCN(S(C)(=O)=O)CC3)n1)c1nnc(-c3c(F)cccc3F)cc12 [Example 338]
17,8.25,"CC1(C)[C@H]2CC[C@]1(c1cccc(-c3nc([C@@H](O)C(F)(F)F)n[nH]3)n1)c1nnc(-c3c(F)cccc3F)cc12 [Example 339, (R)-1-(5-(6-((5R,8S)-3-(2,6-difluorophenyl)-9,9-dimethyl-5,6,7,8-tetrahydro-5,8-methanocinnolin-8-yl)pyridin-2-yl)-1H-1,2,4-triazol-3-yl)-2,2,2-trifluoroethanol]"
18,8.44,"CC1(C)[C@H]2CC[C@]1(c1cccc(-c3nc([C@H](O)C(F)(F)F)n[nH]3)n1)c1nnc(-c3c(F)cccc3F)cc12 [Example 340, (S)-1-(5-(6-((5R,8S)-3-(2,6-difluorophenyl)-9,9-dimethyl-5,6,7,8-tetrahydro-5,8-methanocinnolin-8-yl)pyridin-2-yl)-1H-1,2,4-triazol-3-yl)-2,2,2-trifluoroethanol]"
19,8.47,"CC1(C)[C@H]2CC[C@]1(c1cncc(-c3nc(C#N)co3)n1)c1nnc(-c3c(F)cccc3F)cc12 [Example 341, 2-(6-((5R,8S)-3-(2,6-difluorophenyl)-9,9-dimethyl-5,6,7,8-tetrahydro-5,8-methanocinnolin-8-yl)pyrazin-2-yl)oxazole-4-carbonitrile]"

# Source: patent publication US10487068B2, “Pyridazine derivatives as RORc modulators” (Genentech, Inc., priority 2015, dated 2019)
